Measured values: article PMC6576746, “Rational discovery of dual-indication multi-target PDE/Kinase inhibitor for precision anti-cancer therapy using structural systems pharmacology” (PLoS Computational Biology, 2019)

Tests used:
Experiment in all cases: biochemical
Parameters in all cases: DiscoverX KinomeScan competition binding assay across human kinases; per cent of control at 10 and 100 uM
MEK2 = biological target: T1, MEK2 (Homo sapiens, UniProt P36507); conditions: competition binding, % of control; read-out: Percent Control (100 uM Levosimendan)
T1 construct: gene MAP2K2
In short: (§1)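 KinomeScan competition binding was run across a human kinase panel at 10 μM and 100 μM levosimendan. Results are %control = (test − positive control)/(negative control − positive control) × 100.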

PHKG1 = PHKG1 (Homo sapiens, UniProt Q16816); conditions: competition binding, % of control; read-out: Percent Control (100 uM Levosimendan)
In short: as §1

HIPK1 = HIPK1 (Homo sapiens, UniProt Q86Z02); conditions: competition binding, % of control
In short: as §1

ALK(C1156Y) = ALK(C1156Y) (Homo sapiens, UniProt Q9UM73, C1156Y); conditions: competition binding, % of control; read-out: Percent Control (100 uM Levosimendan)
In short: as §1

[1] = biological target: T2, JAK1(JH1domain-catalytic) (Homo sapiens, UniProt P23458); conditions: competition binding, % of control; read-out: Percent Control (100 uM Levosimendan)
T2 construct: JH1domain-catalytic
In short: as §1

[2] = biological target: T3, JAK1(JH2domain-pseudokinase) (Homo sapiens, UniProt P23458); conditions: competition binding, % of control
T3 construct: JH2domain-pseudokinase
In short: as §1

PDGFRA = PDGFRA (Homo sapiens, UniProt P16234); conditions: competition binding, % of control
In short: as §1

SIK = biological target: T4, SIK (Homo sapiens, UniProt P57059); conditions: competition binding, % of control; read-out: Percent Control (100 uM Levosimendan)
T4 construct: gene SIK1
In short: as §1

PIK3CA(H1047Y) = PIK3CA(H1047Y) (Homo sapiens, UniProt P42336, H1047Y); conditions: competition binding, % of control; read-out: Percent Control (100 uM Levosimendan)
In short: as §1

[3] = biological target: T5, ABL1(F317L)-phosphorylated (Homo sapiens, UniProt P00519, F317L); conditions: competition binding, % of control; read-out: Percent Control (100 uM Levosimendan)
T5 construct: phosphorylated
In short: as §1

MST1R = MST1R (Homo sapiens, UniProt Q04912); conditions: competition binding, % of control; read-out: Percent Control (100 uM Levosimendan)
In short: as §1

MST4 = biological target: T6, MST4 (Homo sapiens, UniProt Q9P289); conditions: competition binding, % of control; read-out: Percent Control (100 uM Levosimendan)
T6 construct: gene STK26
In short: as §1

LOK = biological target: T7, LOK (Homo sapiens, UniProt O94804); conditions: competition binding, % of control; read-out: Percent Control (100 uM Levosimendan)
T7 construct: gene STK10
In short: as §1

ADCK3 = biological target: T8, ADCK3 (Homo sapiens, UniProt Q8NI60); conditions: competition binding, % of control; read-out: Percent Control (100 uM Levosimendan)
T8 construct: gene COQ8A
In short: as §1

GRK7 = GRK7 (Homo sapiens, UniProt Q8WTQ7); conditions: competition binding, % of control; read-out: Percent Control (100 uM Levosimendan)
In short: as §1

HUNK = HUNK (Homo sapiens, UniProt P57058); conditions: competition binding, % of control; read-out: Percent Control (100 uM Levosimendan)
In short: as §1

FLT1 = FLT1 (Homo sapiens, UniProt P17948); conditions: competition binding, % of control
In short: as §1

PCTK3 = biological target: T9, PCTK3 (Homo sapiens, UniProt Q07002); conditions: competition binding, % of control; read-out: Percent Control (100 uM Levosimendan)
T9 construct: gene CDK18
In short: as §1

[4] = read-out: Percent Control (10 uM Levosimendan)
[5] = read-out: Percent Control (100 uM Levosimendan)

Chain of PDGFRA (P16234 whole entry): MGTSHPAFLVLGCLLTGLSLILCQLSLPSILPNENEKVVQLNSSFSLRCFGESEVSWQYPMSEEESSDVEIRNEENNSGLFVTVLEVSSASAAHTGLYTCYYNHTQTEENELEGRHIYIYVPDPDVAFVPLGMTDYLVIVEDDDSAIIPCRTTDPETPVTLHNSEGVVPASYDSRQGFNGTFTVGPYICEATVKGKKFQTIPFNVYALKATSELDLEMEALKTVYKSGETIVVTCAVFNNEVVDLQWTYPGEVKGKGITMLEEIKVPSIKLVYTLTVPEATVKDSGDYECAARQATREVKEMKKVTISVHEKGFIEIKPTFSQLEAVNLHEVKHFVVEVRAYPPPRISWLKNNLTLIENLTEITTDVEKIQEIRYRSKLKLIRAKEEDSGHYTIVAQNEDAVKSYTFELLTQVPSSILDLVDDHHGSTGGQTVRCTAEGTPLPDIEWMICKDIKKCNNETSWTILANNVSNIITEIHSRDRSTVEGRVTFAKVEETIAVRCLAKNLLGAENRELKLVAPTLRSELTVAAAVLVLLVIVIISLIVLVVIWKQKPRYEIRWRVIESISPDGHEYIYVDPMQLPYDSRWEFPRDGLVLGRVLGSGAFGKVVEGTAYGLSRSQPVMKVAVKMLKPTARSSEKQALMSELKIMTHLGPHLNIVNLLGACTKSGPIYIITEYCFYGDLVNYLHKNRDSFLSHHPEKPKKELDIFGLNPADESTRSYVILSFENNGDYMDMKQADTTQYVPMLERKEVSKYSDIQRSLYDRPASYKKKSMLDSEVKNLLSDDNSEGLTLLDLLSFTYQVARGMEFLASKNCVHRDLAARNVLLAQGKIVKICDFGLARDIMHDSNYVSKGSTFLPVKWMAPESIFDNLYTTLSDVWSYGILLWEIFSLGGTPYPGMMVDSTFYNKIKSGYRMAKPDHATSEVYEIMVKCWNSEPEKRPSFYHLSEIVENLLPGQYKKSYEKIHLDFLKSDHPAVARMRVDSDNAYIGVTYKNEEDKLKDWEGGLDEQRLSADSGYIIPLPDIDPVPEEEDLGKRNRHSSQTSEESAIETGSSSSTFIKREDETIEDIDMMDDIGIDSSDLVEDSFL
Chain of FLT1 (P17948 whole entry): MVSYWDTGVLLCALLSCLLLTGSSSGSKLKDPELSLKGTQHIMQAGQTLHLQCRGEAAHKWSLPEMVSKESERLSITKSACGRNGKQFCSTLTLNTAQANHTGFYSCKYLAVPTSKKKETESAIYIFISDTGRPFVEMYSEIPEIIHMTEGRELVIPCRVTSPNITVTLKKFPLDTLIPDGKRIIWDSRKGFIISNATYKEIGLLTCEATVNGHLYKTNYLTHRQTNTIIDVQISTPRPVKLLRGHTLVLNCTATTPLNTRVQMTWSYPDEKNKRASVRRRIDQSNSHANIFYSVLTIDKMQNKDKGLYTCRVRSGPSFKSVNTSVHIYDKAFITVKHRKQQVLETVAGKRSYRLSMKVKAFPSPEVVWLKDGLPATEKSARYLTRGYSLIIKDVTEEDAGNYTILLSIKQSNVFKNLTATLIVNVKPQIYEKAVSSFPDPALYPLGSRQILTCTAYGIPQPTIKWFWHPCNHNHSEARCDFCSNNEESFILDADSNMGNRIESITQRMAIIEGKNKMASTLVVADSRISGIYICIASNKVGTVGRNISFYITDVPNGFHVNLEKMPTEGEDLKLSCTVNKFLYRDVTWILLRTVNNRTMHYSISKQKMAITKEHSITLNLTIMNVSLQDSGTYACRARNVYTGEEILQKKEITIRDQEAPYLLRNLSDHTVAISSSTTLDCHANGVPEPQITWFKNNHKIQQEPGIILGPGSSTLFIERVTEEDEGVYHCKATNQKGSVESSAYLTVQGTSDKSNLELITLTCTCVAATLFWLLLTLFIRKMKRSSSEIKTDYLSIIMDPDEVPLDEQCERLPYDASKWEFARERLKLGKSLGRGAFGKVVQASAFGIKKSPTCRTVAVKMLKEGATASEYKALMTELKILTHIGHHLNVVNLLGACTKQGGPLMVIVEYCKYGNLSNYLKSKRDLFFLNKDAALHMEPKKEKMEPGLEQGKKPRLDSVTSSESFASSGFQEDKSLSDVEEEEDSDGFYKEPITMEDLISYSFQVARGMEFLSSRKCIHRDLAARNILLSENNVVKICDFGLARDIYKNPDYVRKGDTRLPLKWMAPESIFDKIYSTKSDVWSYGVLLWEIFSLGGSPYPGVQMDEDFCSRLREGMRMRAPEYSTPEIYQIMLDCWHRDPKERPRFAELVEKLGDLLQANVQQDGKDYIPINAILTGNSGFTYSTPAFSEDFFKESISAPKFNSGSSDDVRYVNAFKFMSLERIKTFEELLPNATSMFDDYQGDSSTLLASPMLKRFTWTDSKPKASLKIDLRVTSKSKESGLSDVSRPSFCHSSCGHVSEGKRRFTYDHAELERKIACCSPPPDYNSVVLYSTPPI
Chain of HIPK1 (Q86Z02 whole entry): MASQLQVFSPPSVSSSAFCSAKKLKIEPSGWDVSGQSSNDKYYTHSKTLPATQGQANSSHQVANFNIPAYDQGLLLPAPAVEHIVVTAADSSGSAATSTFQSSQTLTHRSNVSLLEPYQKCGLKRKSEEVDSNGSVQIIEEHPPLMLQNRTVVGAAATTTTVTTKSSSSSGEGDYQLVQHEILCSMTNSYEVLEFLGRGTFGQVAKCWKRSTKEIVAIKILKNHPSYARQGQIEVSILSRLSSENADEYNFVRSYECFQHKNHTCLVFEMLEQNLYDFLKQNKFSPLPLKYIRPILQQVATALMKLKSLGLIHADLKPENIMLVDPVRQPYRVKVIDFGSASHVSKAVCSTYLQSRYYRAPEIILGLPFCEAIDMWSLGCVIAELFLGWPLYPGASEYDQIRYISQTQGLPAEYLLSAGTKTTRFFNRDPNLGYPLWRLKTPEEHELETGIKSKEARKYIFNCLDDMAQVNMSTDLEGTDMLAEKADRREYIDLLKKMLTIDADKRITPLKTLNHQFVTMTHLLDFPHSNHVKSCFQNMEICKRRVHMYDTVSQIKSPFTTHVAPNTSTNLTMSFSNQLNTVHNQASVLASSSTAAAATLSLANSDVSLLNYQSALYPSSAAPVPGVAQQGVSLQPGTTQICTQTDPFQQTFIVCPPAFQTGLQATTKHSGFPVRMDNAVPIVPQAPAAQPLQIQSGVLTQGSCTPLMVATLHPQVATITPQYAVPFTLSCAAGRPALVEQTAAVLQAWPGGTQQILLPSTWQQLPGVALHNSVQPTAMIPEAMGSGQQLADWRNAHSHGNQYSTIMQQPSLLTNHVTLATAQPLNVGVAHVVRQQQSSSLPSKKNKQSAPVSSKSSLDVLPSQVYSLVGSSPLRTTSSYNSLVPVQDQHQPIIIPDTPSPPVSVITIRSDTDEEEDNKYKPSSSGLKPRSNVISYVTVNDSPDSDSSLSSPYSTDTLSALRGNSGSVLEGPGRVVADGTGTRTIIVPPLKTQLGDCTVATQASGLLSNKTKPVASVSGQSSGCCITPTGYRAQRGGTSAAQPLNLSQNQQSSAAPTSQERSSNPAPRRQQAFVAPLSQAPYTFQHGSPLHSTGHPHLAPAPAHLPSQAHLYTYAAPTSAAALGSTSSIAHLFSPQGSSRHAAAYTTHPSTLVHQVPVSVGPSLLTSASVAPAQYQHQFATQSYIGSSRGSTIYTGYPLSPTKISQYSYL
T3 sequence (P23458 whole entry): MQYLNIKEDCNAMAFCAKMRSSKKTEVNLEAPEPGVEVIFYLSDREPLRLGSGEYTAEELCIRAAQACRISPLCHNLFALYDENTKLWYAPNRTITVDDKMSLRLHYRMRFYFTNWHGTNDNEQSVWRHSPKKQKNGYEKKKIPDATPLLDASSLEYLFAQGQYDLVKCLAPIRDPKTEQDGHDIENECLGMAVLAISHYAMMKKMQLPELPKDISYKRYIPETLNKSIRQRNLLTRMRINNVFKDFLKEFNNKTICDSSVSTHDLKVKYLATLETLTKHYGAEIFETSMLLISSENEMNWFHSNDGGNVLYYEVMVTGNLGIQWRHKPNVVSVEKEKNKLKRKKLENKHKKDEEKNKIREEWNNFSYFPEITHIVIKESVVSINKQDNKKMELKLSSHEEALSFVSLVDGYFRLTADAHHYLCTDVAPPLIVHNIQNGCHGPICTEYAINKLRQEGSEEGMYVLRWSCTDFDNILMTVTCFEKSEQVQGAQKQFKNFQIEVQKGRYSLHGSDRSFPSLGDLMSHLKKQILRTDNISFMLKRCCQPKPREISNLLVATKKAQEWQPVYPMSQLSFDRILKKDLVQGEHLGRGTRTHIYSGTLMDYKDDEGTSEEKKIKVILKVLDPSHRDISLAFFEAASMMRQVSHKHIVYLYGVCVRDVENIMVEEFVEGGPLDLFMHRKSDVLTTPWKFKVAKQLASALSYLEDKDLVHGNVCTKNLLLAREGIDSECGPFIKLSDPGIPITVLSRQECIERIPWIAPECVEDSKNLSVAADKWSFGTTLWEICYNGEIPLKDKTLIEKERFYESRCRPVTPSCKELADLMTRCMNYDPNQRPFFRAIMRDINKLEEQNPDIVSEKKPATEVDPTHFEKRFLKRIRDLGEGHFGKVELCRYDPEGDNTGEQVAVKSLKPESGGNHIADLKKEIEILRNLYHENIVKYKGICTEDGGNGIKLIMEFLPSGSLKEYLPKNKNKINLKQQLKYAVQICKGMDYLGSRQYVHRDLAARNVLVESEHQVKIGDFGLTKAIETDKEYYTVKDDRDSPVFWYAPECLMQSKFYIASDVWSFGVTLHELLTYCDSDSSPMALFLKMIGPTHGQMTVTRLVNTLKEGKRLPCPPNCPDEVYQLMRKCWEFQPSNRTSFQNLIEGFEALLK
T2 sequence (P23458 whole entry): as above

remaining binding at 100 µM (MEK2): 70%
remaining binding at 100 µM (PHKG1): 89%
remaining binding at 10 µM (HIPK1; [4]): 95%
remaining binding at 100 µM (HIPK1; [5]): 20%
remaining binding at 100 µM (ALK(C1156Y)): 64%
remaining binding at 100 µM [1]: 100%
remaining binding at 10 µM [2, 4]: 30%
remaining binding at 100 µM [2, 5]: 7.2%
remaining binding at 10 µM (PDGFRA; [4]): 73%
remaining binding at 100 µM (PDGFRA; [5]): 37%
remaining binding at 100 µM (SIK): 59%
remaining binding at 100 µM (PIK3CA(H1047Y)): 100%
remaining binding at 100 µM [3]: 59%
remaining binding at 100 µM (MST1R): 87%
remaining binding at 100 µM (MST4): 71%
remaining binding at 100 µM (LOK): 70%
remaining binding at 100 µM (ADCK3): 57%
remaining binding at 100 µM (GRK7): 100%
remaining binding at 100 µM (HUNK): 100%
remaining binding at 10 µM (FLT1; [4]): 98%
remaining binding at 100 µM (FLT1; [5]): 44%
remaining binding at 100 µM (PCTK3): 100%
Structure (SMILES): C[C@@H]1CC(=O)NN=C1c1ccc(NN=C(C#N)C#N)cc1 [levosimendan]
